Data published in US20150158870A1, “POLYMORPHS OF 7-(TERT-BUTYL-D9)-3-(2,5-DIFLUOROPHENYL)-6-((1-METHYL-1H-1,2,4-TRIAZOL-5-YL)METHOXY)-[1,2,4]TRIAZOLO[4,3-B]PYRIDAZINE” (Concert Pharmaceuticals Inc., priority 2012, published 2015).

Experiments:
Assay type in all cases: physicochemical
[1] = Milling at -196° C. and recrystallization
Excerpt: (§1) Form 1 is a non-solvated, non-hygroscopic crystal.

[2] = Physical (crystal form) stability on exposure to ambient conditions, relative humidity or elevated pressure; conditions: for crystal form change on exposure to 75% relative humidity: 75% relative humidity for five days; for crystal form change on exposure to 97% relative humidity: 97% relative humidity for 5 days
Excerpt: as §1
Form 3 is a non-solvated and non-hygroscopic crystal.
Form 4 is a non-solvated crystal.

[3] = Stability of Form 1 to physical and chemical manipulation (Example 3)
Experimental: Form 1 is stable to lyophilization when initially dissolved in a 50:50 mixture of DMC:ACN.
A saturated solution of Form 1 in any of MeOH, ACN, acetone, DCM, TFE, or 1,4-dioxane is stable to evaporation over 3.5 hours at 30° C. under reduced pressure.
A saturated solution of Form 1 in any of MeOH, THF, MeOAc, Toluene, or EtOH in 1 vol % Heptane is stable after heating to 50° C., filtering the solution and rapidly cooling to 5° C.
A suspension of Form 1 in any of DMSO, n-BuOH, 2-Methoxyethanol, IPA, EtOH, Nitromethane, DMC, n-PrOH, ACN, Acetone, 2-Butanone, EtOAc, THF, EtOH in 5 vol % Toluene, MeOAc, or EtOH in 5 vol % MeOH is stable after cycling temperature between 5 and 40° C. for >48 hrs with constant stirring.
Form 1 was also stable to exposure to 75% relative humidity or to high pressure (10 kPSi).
A saturated solution of Form 1 in any of n-PrOH, ACN, Acetone, 2-Butanone, EtOAc, THF, EtOH in 5 vol % Toluene, MeOAc, or EtOH in 5 vol % MeOH at 25° C., is stable after filtering the solution and then cooling the solution to 5° C. at a rate of 1° C./min.
A saturated solution of Form 1 in any of TFE, 2-Methoxyethanol, IPA, EtOH, Heptane, 4-Methyl-2-pentanone, cyclohexane, ACN, Acetone, 2-Butanone, EtOAc, THF, or EtOH in 5 vol % Toluene is stable to evaporation over 2-28 days under ambient conditions.

[4] = Dynamic Vapor Sorption (DVS) analysis; conditions: for weight gained in DVS analysis: between 0-90% relative humidity, 25° C.
Experimental: Dynamic Vapor Sorption (DVS). DVS experiments were conducted on a Surface Measurement Systems DVS-HT at 25° C. The instrument was operated in step mode and the relative humidity was increased in 10% RH increments from 40% RH to 90% RH, then decreased from 90% RH to 0% RH, then increased from 0% RH to 90% RH, then decreased from 90% RH to 0% RH. An extra step at 75% RH was included in each cycle. The mass equilibrium criterion was set at 0.005% change in mass over time (dm/dt) prior to each humidity level. A minimum step time of 10 minutes and a maximum step time of 240 minutes were specified.

Compound | time to recrystallize back to Form 1 after milling ([1]; after becoming amorphous by milling at -196° C. for 2.5 hours) | solid form after milling ([1]; milled at -196° C. for 2.5 hours) | crystal form change on exposure to 75% relative humidity [2] | crystal form change on exposure to 97% relative humidity [2] | physical stability at ambient conditions ([2]; ambient conditions, no duration stated) | crystal form change on exposure to elevated pressures ([2]; elevated pressures (~0.35 GPa) for 3 days) | crystal form stability to exposure to water vapor ([3]; 75% relative humidity) | crystal form stability to pressing ([3]; high pressure (10 kPSi)) | crystal form stability to lyophilization ([3]; initially dissolved in a 50:50 mixture of DMC:ACN) | crystal form stability to controlled cooling ([3]; saturated solution at 25° C. in any of n-PrOH, ACN, Acetone, 2-Butanone, EtOAc, THF, EtOH in 5 vol % Toluene, MeOAc, EtOH in 5 vol % MeOH, filtered, cooled to 5° C. at 1° C./min) | crystal form stability to fast evaporation ([3]; saturated solution in any of MeOH, ACN, acetone, DCM, TFE or 1,4-dioxane, evaporation over 3.5 hours at 30° C. under reduced pressure) | crystal form stability to rapid cooling ([3]; saturated solution in any of MeOH, THF, MeOAc, Toluene or EtOH in 1 vol % Heptane, heated to 50° C., filtered, rapidly cooled to 5° C.) | crystal form stability to slow evaporation ([3]; saturated solution in any of TFE, 2-Methoxyethanol, IPA, EtOH, Heptane, 4-Methyl-2-pentanone, cyclohexane, ACN, Acetone, 2-Butanone, EtOAc, THF, EtOH in 5 vol % Toluene, evaporation over 2-28 days under ambient conditions) | crystal form stability to slurry equilibration ([3]; suspension in any of DMSO, n-BuOH, 2-Methoxyethanol, IPA, EtOH, Nitromethane, DMC, n-PrOH, ACN, Acetone, 2-Butanone, EtOAc, THF, EtOH in 5 vol % Toluene, MeOAc, EtOH in 5 vol % MeOH, cycling 5-40° C. for >48 hrs with stirring) | hygroscopicity of the crystal [4] | weight gained in DVS analysis [4] | time physically stable at ambient conditions ([2]; ambient conditions)
[2H]C([2H])([2H])C(c1cc2nnc(-c3cc(F)ccc3F)n2nc1OCc1ncnn1C)(C([2H])([2H])[2H])C([2H])([2H])[2H] [Form 1, 7-(tert-Butyl-d9)-3-(2,5-difluorophenyl)-6-((1-methyl-1H-1,2,4-triazol-5-yl)methoxy)-[1,2,4]triazolo[4,3-b]pyridazine] | ≤ 30 min | becomes amorphous | does not undergo a crystal form change | partially converts to Form 2 | physically stable | does not undergo a crystal form change | stable | stable | stable | stable | stable | stable | stable | stable | non-hygroscopic | < 0.25 % wt | –
[2H]C([2H])([2H])C(c1cc2nnc(-c3cc(F)ccc3F)n2nc1OCc1ncnn1C)(C([2H])([2H])[2H])C([2H])([2H])[2H] [Form 3, 7-(tert-Butyl-d9)-3-(2,5-difluorophenyl)-6-((1-methyl-1H-1,2,4-triazol-5-yl)methoxy)-[1,2,4]triazolo[4,3-b]pyridazine] | – | – | – | does not undergo a crystal form change | – | – | – | – | – | – | – | – | – | – | non-hygroscopic | < 0.25 % wt | at least 2 weeks
[2H]C([2H])([2H])C(c1cc2nnc(-c3cc(F)ccc3F)n2nc1OCc1ncnn1C)(C([2H])([2H])[2H])C([2H])([2H])[2H] [Form 4, 7-(tert-Butyl-d9)-3-(2,5-difluorophenyl)-6-((1-methyl-1H-1,2,4-triazol-5-yl)methoxy)-[1,2,4]triazolo[4,3-b]pyridazine] | – | – | does not undergo a crystal form change | – | – | – | – | – | – | – | – | – | – | – | – | – | at least 2 weeks
